In patent US9834558B2, “Substituted bridged urea analogs as sirtuin modulators” (GLAXOSMITHKLINE LLC, priority 2013, dated 2017):
Where two headings read alike, the source gives them in different places. One block for each compound: values may come before it.

Biological target: T1, SIRT1 (Homo sapiens, UniProt Q96EB6)
T1 sequence (Q96EB6 1-747): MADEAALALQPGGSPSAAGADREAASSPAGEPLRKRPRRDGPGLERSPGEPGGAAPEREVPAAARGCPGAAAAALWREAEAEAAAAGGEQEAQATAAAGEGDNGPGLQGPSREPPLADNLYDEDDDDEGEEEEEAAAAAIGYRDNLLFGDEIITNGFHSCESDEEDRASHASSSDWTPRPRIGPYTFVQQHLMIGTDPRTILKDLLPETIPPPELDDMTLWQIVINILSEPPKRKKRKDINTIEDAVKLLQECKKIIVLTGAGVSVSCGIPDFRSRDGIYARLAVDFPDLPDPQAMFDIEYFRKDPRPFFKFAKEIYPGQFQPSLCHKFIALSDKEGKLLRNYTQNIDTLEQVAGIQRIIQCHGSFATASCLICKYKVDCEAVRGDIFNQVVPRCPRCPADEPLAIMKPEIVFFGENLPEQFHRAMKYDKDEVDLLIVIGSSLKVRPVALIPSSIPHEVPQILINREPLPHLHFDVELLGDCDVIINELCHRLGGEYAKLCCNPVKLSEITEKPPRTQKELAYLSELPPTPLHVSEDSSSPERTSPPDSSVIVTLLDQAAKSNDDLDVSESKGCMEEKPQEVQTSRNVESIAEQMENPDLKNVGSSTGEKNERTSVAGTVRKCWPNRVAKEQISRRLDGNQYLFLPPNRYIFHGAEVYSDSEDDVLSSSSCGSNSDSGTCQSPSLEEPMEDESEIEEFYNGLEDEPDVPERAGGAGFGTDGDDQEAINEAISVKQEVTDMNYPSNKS
Test: Trp mass spectrometry assay of SIRT1 activation
Format: biochemical
Conditions: for TRP Activity (EC1.5): EC1.5 = concentration that results in 150% activation of SIRT1
Procedure, shortened: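 N-terminal His-tagged human SIRT1 (10 nM, E. coli BL21(DE3)) with 0.5 μM Ac-RHKK(Ac)W-NH2 peptide and 120 μM βNAD+, 25 min at 25 °C in HEPES pH 7.5, formic acid stop. OAADPR or deacetylated peptide quantified by mass spectrometry; EC1.5 (50% activity increase over control) and Percent Maximum Activation reported.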

[1] = Trp mass spectrometry assay, EC1.5 = concentration of test compound that results in 150% activation of SIRT1
[2] = Trp peptide assay, maximum activity relative to control (100%), read-out: TRP MAX RESP (percent maximum fold activation)
[3] = concentration giving 150% activation of SIRT1, Trp peptide substrate
[4] = Trp mass spectrometry assay, concentration of test compound giving 150% activation of SIRT1

SMILES: Cn1ccc(-c2ccc3c(n2)N(C(=O)Nc2cnccn2)[C@H]2CCN3C2)cc1=O [(9S)-5-(1-methyl-2-oxo-1,2-dihydropyridin-4-yl)-N-(pyrazin-2-yl)-1,6,8-triazatricyclo[7.2.1.0^{2,7}]dodeca-2(7),3,5-triene-8-carboxamide]
TRP Activity (EC1.5) (Trp peptide assay): B (B (EC1.5 1-25 μM))
Emax [2]: > 150%

SMILES: Cc1ccc(-c2ccc3c(n2)N(C(=O)NC2CCOCC2)[C@H]2CCN3C2)cn1 [(9S)-5-(6-methylpyridin-3-yl)-N-(oxan-4-yl)-1,6,8-triazatricyclo[7.2.1.0^{2,7}]dodeca-2(7),3,5-triene-8-carboxamide]
TRP Activity (EC1.5) (Trp peptide assay): C (C (EC1.5>25 μM))
Emax [2]: < 150%

SMILES: O=C(Nc1ccncc1Cl)N1c2nc(-c3cccc(C(F)(F)F)c3)ccc2N2CC[C@H]1C2 [Example 96]
Tryp AVG EC1.5 (μM) (Trp peptide substrate, concentration giving 150% activation of SIRT1): B (B (EC1.5 1-25 μM))

SMILES: Cc1ccc(-c2ccc3c(n2)N(C(=O)Nc2cnccn2)[C@H]2CCN3C2)c(C)n1 [(9S)-5-(2,6-dimethylpyridin-3-yl)-N-(pyrazin-2-yl)-1,6,8-triazatricyclo[7.2.1.0 {2,7}]dodeca-2(7),3,5-triene-8-carboxamide]
TRP Activity (EC1.5) (Trp peptide assay): B (B (EC1.5 1-25 μM))
Emax [2]: > 150%

SMILES: O=C(Nc1ccc(F)cn1)N1c2nc(N3CCCC(C(F)(F)F)C3)ccc2N2CCC[C@@H]1C2 (some centres unmarked) [Example 362]
Tryp AVG EC1.5 (μM) [4]: C (C (EC1.5>25 μM))

SMILES: CC(C)n1cc(-c2ccc3c(n2)N(C(=O)Nc2cnccn2)[C@H]2CCN3C2)cn1 [(9S)-5-[1-(propan-2-yl)-1H-pyrazol-4-yl]-N-(pyrazin-2-yl)-1,6,8-triazatricyclo[7.2.1.0 {2,7}]dodeca-2,4,6-triene-8-carboxamide]
TRP Activity (EC1.5) (Trp peptide assay): A (A (EC1.5<1 μM))
Emax [2]: > 150%

SMILES: O=C(Nc1cnccn1)N1c2nc(-c3ccnc(CO)c3)ccc2N2CC[C@H]1C2 [(9S)-5-[2-(hydroxymethyl)pyridin-4-yl]-N-(pyrazin-2-yl)-1,6,8-triazatricyclo[7.2.1.0 {2,7}]dodeca-2(7),3,5-triene-8-carboxamide]
TRP Activity (EC1.5) (Trp peptide assay): B (B (EC1.5 1-25 μM))
Emax [2]: > 150%

SMILES: COc1cc(NC(=O)N2c3nc(-c4ccnc(N5CCC(F)(F)C5)c4)ccc3N3CC[C@H]2C3)ncn1 [Example 390]
Tryp AVG EC1.5 (μM) [4]: B (B (EC1.5 1-25 μM))

SMILES: O=C(Nc1cccnc1)N1c2nc(-c3cccc(C(F)(F)F)c3)ccc2N2CCC[C@H]1C2 [314 (5)]
Tryp AVG EC1.5 (μM) [4]: A (A (EC1.5<1 μM))

SMILES: O=C(Nc1ccncc1F)N1c2nc(-c3cccc(CC(O)CO)c3)ccc2N2CC[C@H]1C2 (some centres unmarked) [Example 357]
Tryp AVG EC1.5 (μM) [4]: B (B (EC1.5 1-25 μM))

SMILES: O=C(Nc1ccccn1)N1c2nc(-c3cccc(C(F)(F)F)c3F)ccc2N2CC[C@H]1C2 [Example 334]
Tryp AVG EC1.5 (μM) [4]: B (B (EC1.5 1-25 μM))

SMILES: Cc1cc(-c2ccc3c(n2)N(C(=O)Nc2c[nH]nn2)[C@H]2CCN3C2)ccn1 [(9S)-5-(2-methylpyridin-4-yl)-N-(1H-1,2,3-triazol-4-yl)-1,6,8-triazatricyclo[7.2.1.0 {2,7}]dodeca-2(7),3,5-triene-8-carboxamide]
TRP Activity (EC1.5) (Trp peptide assay): B (B (EC1.5 1-25 μM))
Emax [2]: > 150%

SMILES: Cc1cc(-c2ccc3c(n2)N(C(=O)Nc2ccc4[nH]cnc4n2)[C@H]2CCN3C2)ccn1 [(9S)-N-{1H-imidazo[4,5-b]pyridin-5-yl}-5-(2-methylpyridin-4-yl)-1,6,8-triazatricyclo[7.2.1.0 {2,7}]dodeca-2(7),3,5-triene-8-carboxamide]
TRP Activity (EC1.5) (Trp peptide assay): B (B (EC1.5 1-25 μM))
Emax [2]: > 150%

SMILES: CS(=O)(=O)Nc1cccc(-c2ccc3c(n2)N(C(=O)Nc2cnccn2)[C@H]2CCN3C2)c1 [Example 418]
Tryp AVG EC1.5 (μM) [1]: B (B (EC1.5 1-25 μM))

SMILES: C[C@H]1COCCN1c1ccc2c(n1)N(C(=O)Nc1cccnc1)[C@H]1CCN2C1 [(9S)-5-[(3S)-3-methylmorpholin-4-yl]-N-(pyridin-3-yl)-1,6,8-triazatricyclo[7.2.1.0^2,7]dodeca-2(7),3,5-triene-8-carboxamide]
TRP Activity (EC1.5) (Trp peptide assay): B (B (EC1.5 1-25 μM))
Emax [2]: > 150%

SMILES: Cn1cc(-c2ccc3c(n2)N(C(=O)Nc2cccnc2)[C@H]2CCN3C2)ccc1=O [(9S)-5-(1-methyl-6-oxo-1,6-dihydropyridin-3-yl)-N-(pyridin-3-yl)-1,6,8-triazatricyclo[7.2.1.0^2,7]dodeca-2(7),3,5-triene-8-carboxamide]
TRP Activity (EC1.5) (Trp peptide assay): B (B (EC1.5 1-25 μM))
Emax [2]: > 150%

SMILES: O=C(Nc1cnccn1)N1c2nc(-c3cc(F)c(F)c(F)c3)ccc2N2CC[C@H]1C2 [Example 416]
Tryp AVG EC1.5 (μM) [4]: C (C (EC1.5>25 μM))

SMILES: O=C(Nc1ccccn1)N1c2nc(-c3cc(F)cc(F)c3)ccc2N2CC[C@H]1C2 [Example 344]
Tryp AVG EC1.5 (μM) [4]: A (A (EC1.5<1 μM))

Results, then the compound that gave them:

Tryp AVG EC1.5 (μM) [1]: B (B (EC1.5 1-25 μM))
SMILES: CS(=O)(=O)N1CCCN(c2ccc3c(n2)N(C(=O)Nc2ccncn2)[C@H]2CCCN3C2)CC1 [Example 433]

Tryp AVG EC1.5 (μM) [1]: B (B (EC1.5 1-25 μM))
SMILES: O=C(Nc1ccccn1)N1c2nc(-c3cccc(N4CCOCC4)c3)ccc2N2CCC[C@H]1C2 [Example 536]

Tryp AVG EC1.5 (μM) [3]: C (C (EC1.5>25 μM))
SMILES: O=C(Nc1cnccn1)N1c2nc(-c3cccc(Cl)c3)ccc2N2C[C@@H](O)[C@H]1C2 [Example 678]

Tryp AVG EC1.5 (μM) [1]: B (B (EC1.5 1-25 μM))
SMILES: Cc1ccncc1-c1ccc2c(n1)N(C(=O)Nc1cncc(F)c1)[C@H]1CCCN2C1 [Example 510]

Tryp AVG EC1.5 (μM) [3]: A (A (EC1.5<1 μM))
SMILES: O=C(Nc1cccc(OC[C@H](O)CO)n1)N1c2nc(-c3cccc(C(F)(F)F)c3)ccc2N2CC[C@H]1C2 [Example 819]

Tryp AVG EC1.5 (μM) [3]: B (B (EC1.5 1-25 μM))
SMILES: O=C(NCCCn1ccnc1)N1c2nc(-c3cccc(C(F)(F)F)c3)ccc2N2CC[C@H]1C2 [Example 627]

Tryp AVG EC1.5 (μM) [3]: B (B (EC1.5 1-25 μM))
Emax (percent maximum fold activation of SIRT1, Trp peptide substrate, read-out: Tryp % Fold Act): > 150%
SMILES: CC(C)(C)OC(=O)NCc1cccc(-c2ccc3c(n2)N(C(=O)Nc2ccncc2)[C@H]2CCN3C2)c1 [Example 794]

Tryp AVG EC1.5 (μM) [3]: A (A (EC1.5<1 μM))
SMILES: O=C(Nc1nnc(-c2cccnc2)o1)N1c2nc(-c3cccc(C(F)(F)F)c3)ccc2N2CC[C@H]1C2 [Example 721]

Tryp AVG EC1.5 (μM) [1]: A (A (EC1.5<1 μM))
SMILES: N#Cc1cncc(-c2ccc3c(n2)N(C(=O)Nc2cnccn2)[C@H]2CCN3C2)c1 [Example 459]

Tryp AVG EC1.5 (μM) [3]: A (A (EC1.5<1 μM))
SMILES: NCCCCCC(=O)NCc1cccc(NC(=O)N2c3nc(-c4cccc(C(F)(F)F)c4)ccc3N3CC[C@H]2C3)c1 [Example 758]

Tryp AVG EC1.5 (μM) [3]: B (B (EC1.5 1-25 μM))
SMILES: Cc1nc(NC(=O)N2c3nc(-c4cccc(C(F)(F)F)c4)ccc3N3C[C@@H](O)[C@H]2C3)sc1C [Example 699]

Tryp AVG EC1.5 (μM) [3]: B (B (EC1.5 1-25 μM))
SMILES: CS(=O)(=O)c1cccc(-c2ccc3c(n2)N(C(=O)Nc2cccc(-c4cnco4)n2)[C@H]2CCN3C2)c1 [Example 715]

Tryp AVG EC1.5 (μM) [1]: C (C (EC1.5>25 μM))
SMILES: O=C(O[C@@H]1CN2C[C@H]1N(C(=O)Nc1ccccn1)c1nc(-c3cccc(C(F)(F)F)c3)ccc12)c1ccccc1 [Example 603]

Tryp AVG EC1.5 (μM) [3]: A (A (EC1.5<1 μM))
SMILES: O=C(Nc1cccc(-c2cnco2)n1)N1c2nc(-c3cccc(C(F)(F)F)c3)ccc2N2C[C@@H](O)[C@H]1C2 [Example 698]

Tryp AVG EC1.5 (μM) [1]: B (B (EC1.5 1-25 μM))
SMILES: O=C(Nc1cncc(F)c1)N1c2nc(-c3cccnc3)ccc2N2CCC[C@H]1C2 [Example 453]

Tryp AVG EC1.5 (μM) [1]: A (A (EC1.5<1 μM))
SMILES: COc1cncc(NC(=O)N2c3nc(-c4ccnc(C)c4)ccc3N3CC[C@H]2C3)n1 [Example 499]

Tryp AVG EC1.5 (μM) [3]: A (A (EC1.5<1 μM))
SMILES: [N-]=[N+]=NCc1cc(N=[N+]=[N-])cc(-c2ccc3c(n2)N(C(=O)Nc2cnccn2)[C@H]2CCN3C2)c1 [Example 808]

Tryp AVG EC1.5 (μM) [3]: A (A (EC1.5<1 μM))
SMILES: NCCCCCC(=O)NCc1cccc(NC(=O)N2c3nc(-c4cccc(C(F)(F)F)c4)ccc3N3CCC[C@H]2C3)c1 [Example 756]

Tryp AVG EC1.5 (μM) [1]: B (B (EC1.5 1-25 μM))
SMILES: COc1cc(NC(=O)N2c3nc(-c4ccc(C)nc4)ccc3N3CCC[C@H]2C3)ncn1 [Example 478]

Tryp AVG EC1.5 (μM) [3]: B (B (EC1.5 1-25 μM))
SMILES: O=C(Nc1cccnn1)N1c2nc(-c3cncc(C(F)(F)F)c3)ccc2N2C[C@@H](O)[C@H]1C2 [Example 701]

Tryp AVG EC1.5 (μM) [1]: A (A (EC1.5<1 μM))
SMILES: O=C(Nc1cc(-c2cnco2)ccn1)N1c2nc(-c3cccc(C(F)(F)F)c3)ccc2N2CCC[C@H]1C2 [Example 591]

Tryp AVG EC1.5 (μM) [1]: A (A (EC1.5<1 μM))
SMILES: CC(C)(C)OC(=O)N1CCC(c2cccc(NC(=O)N3c4nc(-c5cccc(C(F)(F)F)c5)ccc4N4CC[C@H]3C4)c2)C1 (some centres unmarked) [Example 592]
